Laboratory results taken from patent US20230114674A1, “ISOINDOLINE DERIVATIVE, AND PHARMACEUTICAL COMPOSITION AND USE THEREOF” (KANGPU BIOPHARMACEUTICALS, LTD., priority 2020, published 2023).

System: MM.1S myeloma cells
Assay: Cell proliferation inhibition test by MTS assay
Type: cell-based
Conditions: Homo sapiens, MM1.S, 72 hours drug treatment, 15,000 cells/well, 96-well plate
Protocol: Experimental Method for Cell Proliferation Inhibition Test by MTS Assay:
Proliferating MM.1S myeloma cells (ATCC, Cat #CRL-2974) were resuspended in RPMI-640 medium (Gibco, Cat #A10491-01) and counted using an automated cell counter. The cell suspension was diluted to the needed density and 100 μl (15,000 cells) of the cell suspension was plated per well in a 96-well plate. The plate was cultured in a 37° C., 5% CO2 incubator for 24 hours. On the day of administration, each compound was formulated into 20 mM stock solution with DMSO (Sigma, Cat #D2650), diluted with a medium to the needed concentration, and then added to the corresponding wells for the cell proliferation inhibition test with a drug of 4-fold serial dilution with 10 points. The final concentration of DMSO was 0.5%. After drug addition, the 96-well plate was cultured in a 37° C., 5% CO2 incubator for 72 hours. Then, 20 μl of MTS (Promega, Cat #G3581) was added to each well and the plate was cultured for 2 hours in a 37° C., 5% CO2 incubator, and then the absorbance at 490 nm of each well was recorded using an Ensight instrument. The reading of the cells at Day 0 was used as a negative control and the reading of cells with 0.5% DMSO at Day-3 was used as a positive control. Cell proliferation inhibition curve was plotted using GraphPad Prism 5 software and the IC50 value was calculated. Experiment results can be seen in Table 1.

IC50 [nM] | SMILES
0.0054 | COc1cc(N2CCN(Cc3ccc(COc4cccc5c4CN([C@H]4CCC(=O)NC4=O)C5=O)c(F)c3)CC2)ccc1C#N [CM-7, (S)-4-(4-(4-(((2-(2,6-dioxopiperidin-3-yl)-1-oxoisoindolin-4-yl)oxy)methyl)-3-fluorobenzyl)piperazin-1-yl)-2-methoxybenzonitrile]
0.116 | CCc1cc(N2CCN(Cc3ccc(COc4cccc5c4CN([C@H]4CCC(=O)NC4=O)C5=O)c(F)c3)CC2)ccc1C#N [CM-41]
0.0062 | [2H]C([2H])([2H])Oc1cc(N2CCN(Cc3ccc(COc4cccc5c4CN([C@H]4CCC(=O)NC4=O)C5=O)c(F)c3)CC2)ccc1C#N [CM-15]
0.0063 | N#Cc1ccc(N2CCN(Cc3ccc(COc4cccc5c4CN([C@H]4CCC(=O)NC4=O)C5=O)c(F)c3)CC2)cc1F [CM-5, (S)-4-(4-(4-(((2-(2,6-dioxopiperidin-3-yl)-1-oxoisoindolin-4-yl)oxy)methyl)-3-fluorobenzyl)piperazin-1-yl)-2-fluorobenzonitrile]
0.119 | N#Cc1ccc(N2CCN(Cc3ccc(COc4cccc5c4CN([C@H]4CCC(=O)NC4=O)C5=O)c(F)c3)CC2)cc1C1CC1 [CM-37]
0.102 | N#Cc1ccc(N2CCN(Cc3ccc(COc4cccc5c4CN([C@H]4CCC(=O)NC4=O)C5=O)c(F)c3)CC2)cn1 [CM-28]
0.0132 | N#Cc1ccc(N2CCN(Cc3ccc(COc4cccc5c4CN([C@H]4CCC(=O)NC4=O)C5=O)cc3F)CC2)cc1F [CM-20]

Continued, compound first:

SMILES | IC50 [nM]
N#Cc1ccc(N2CCN(Cc3ccc(COc4cccc5c4CN([C@H]4CCC(=O)NC4=O)C5=O)c(F)c3)CC2)cc1C(F)(F)F [CM-6, (S)-4-(4-(4-(((2-(2,6-dioxopiperidin-3-yl)-1-oxoisoindolin-4-yl)oxy)methyl)-3-fluorobenzyl)piperazin-1-yl)-2-(trifluoromethyl)benzonitrile] | 0.0409
CCOc1cc(C#N)ccc1N1CCN(Cc2ccc(COc3cccc4c3CN([C@H]3CCC(=O)NC3=O)C4=O)c(F)c2)CC1 [CM-36] | 0.148
N#Cc1ccc(N2CCN(Cc3ccc(COc4cccc5c4CN([C@H]4CCC(=O)NC4=O)C5=O)cc3F)CC2)c(F)c1 [CM-4, (S)-4-(4-(4-(((2-(2,6-dioxopiperidin-3-yl)-1-oxoisoindolin-4-yl)oxy)methyl)-2-fluorobenzyl)piperazin-1-yl)-3-fluorobenzonitrile] | 0.0153
N#Cc1ccc(N2CCN(Cc3ccc(COc4cccc5c4CN([C@H]4CCC(=O)NC4=O)C5=O)c(Cl)c3)CC2)c(F)c1 [CM-1] | 0.102
N#Cc1ncc(N2CCN(Cc3ccc(COc4cccc5c4CN([C@H]4CCC(=O)NC4=O)C5=O)cc3F)CC2)cc1C(F)(F)F [CM-25] | 0.0291
N#Cc1ccc(N2CCN(Cc3ccc(COc4cccc5c4CN([C@H]4CCC(=O)NC4=O)C5=O)c(F)c3)CC2)c(Cl)c1 [CM-9] | 0.0136
COc1cc(N2CCN(Cc3ccc(COc4cccc5c4CN([C@H]4CCC(=O)NC4=O)C5=O)cc3F)CC2)ccc1C#N [CM-21] | 0.0111
CCc1cc(C#N)ccc1N1CCN(Cc2ccc(COc3cccc4c3CN([C@H]3CCC(=O)NC3=O)C4=O)c(F)c2)CC1 [CM-35] | 0.0962
O=C1CC[C@H](N2Cc3c(OCc4ccc(CN5CCN(c6ccc([N+](=O)[O-])cc6F)CC5)cc4F)cccc3C2=O)C(=O)N1 [CM-2, (S)-3-(4-((2-fluoro-4-((4-(2-fluoro-4-nitrophenyl)piperazin-1-yl)methyl)benzyl)oxy)-1-oxoisoindolin-2-yl)piperidine-2,6-dione] | 0.0139
C#Cc1ccc(N2CCN(Cc3ccc(COc4cccc5c4CN([C@H]4CCC(=O)NC4=O)C5=O)c(F)c3)CC2)c(F)c1 [CM-43] | 0.576
CCOc1nc(N2CCN(Cc3ccc(COc4cccc5c4CN([C@H]4CCC(=O)NC4=O)C5=O)cc3F)CC2)ccc1OC [CM-26] | 0.465
N#Cc1ccc(N2CCN(Cc3ccc(COc4cccc5c4CN(C4CCC(=O)NC4=O)C5=O)c(F)c3)CC2)nc1 (centres unmarked) [CM-29] | 0.201
N#Cc1ccc(N2CCN(Cc3ccc(COc4cccc5c4CN([C@H]4CCC(=O)NC4=O)C5=O)c(F)c3)CC2)c(C(N)=O)c1 [CM-33] | 0.0781
